We go through one compound from ChEMBL document CHEMBL5137068, “Discovery of Hexahydrofuro[3,2-b]furans as New Kinase-Selective and Orally Bioavailable JAK3 Inhibitors for the Treatment of Leukemia Harboring a JAK3 Activating Mutant” (J Med Chem, 2022).

The source made the active and inactive calls. The rule behind the calls is not given here.

Data set [1] has as its system U-937. Description: Induction of cell cycle arrest in human U-937 cells assessed as accumulation at G2/M phase at 100 nM measured after 24 hrs by propidium iodide staining based flow cytometric analysis (reference value: 21.41%). Type of data set: functional.
The target in data set [2] is Receptor tyrosine-protein kinase erbB-4 (Homo sapiens) (UniProt Q15303). The data set is described as follows: Inhibition of HER4 (unknown origin) at 0.5 uM assessed as competition rate relative to control.
Data set [3] deals with Signal transducer and activator of transcription 3 (Homo sapiens) (UniProt P40763). The data set is described as follows: Inhibition of STAT3 activation in human U-937 cells assessed as decrease in P-STAT3 at 100 uM by Western blot analysis. Type of data set: cell-based. The following applies: time 0-24 hrs, TDE = time-dependent effect. A general note: In western blotting, separated proteins are transferred to a membrane and probed.

Data set [4] deals with T1, Tyrosine-protein kinase JAK3 (Homo sapiens) (UniProt P52333).
T1 sequence (whole entry): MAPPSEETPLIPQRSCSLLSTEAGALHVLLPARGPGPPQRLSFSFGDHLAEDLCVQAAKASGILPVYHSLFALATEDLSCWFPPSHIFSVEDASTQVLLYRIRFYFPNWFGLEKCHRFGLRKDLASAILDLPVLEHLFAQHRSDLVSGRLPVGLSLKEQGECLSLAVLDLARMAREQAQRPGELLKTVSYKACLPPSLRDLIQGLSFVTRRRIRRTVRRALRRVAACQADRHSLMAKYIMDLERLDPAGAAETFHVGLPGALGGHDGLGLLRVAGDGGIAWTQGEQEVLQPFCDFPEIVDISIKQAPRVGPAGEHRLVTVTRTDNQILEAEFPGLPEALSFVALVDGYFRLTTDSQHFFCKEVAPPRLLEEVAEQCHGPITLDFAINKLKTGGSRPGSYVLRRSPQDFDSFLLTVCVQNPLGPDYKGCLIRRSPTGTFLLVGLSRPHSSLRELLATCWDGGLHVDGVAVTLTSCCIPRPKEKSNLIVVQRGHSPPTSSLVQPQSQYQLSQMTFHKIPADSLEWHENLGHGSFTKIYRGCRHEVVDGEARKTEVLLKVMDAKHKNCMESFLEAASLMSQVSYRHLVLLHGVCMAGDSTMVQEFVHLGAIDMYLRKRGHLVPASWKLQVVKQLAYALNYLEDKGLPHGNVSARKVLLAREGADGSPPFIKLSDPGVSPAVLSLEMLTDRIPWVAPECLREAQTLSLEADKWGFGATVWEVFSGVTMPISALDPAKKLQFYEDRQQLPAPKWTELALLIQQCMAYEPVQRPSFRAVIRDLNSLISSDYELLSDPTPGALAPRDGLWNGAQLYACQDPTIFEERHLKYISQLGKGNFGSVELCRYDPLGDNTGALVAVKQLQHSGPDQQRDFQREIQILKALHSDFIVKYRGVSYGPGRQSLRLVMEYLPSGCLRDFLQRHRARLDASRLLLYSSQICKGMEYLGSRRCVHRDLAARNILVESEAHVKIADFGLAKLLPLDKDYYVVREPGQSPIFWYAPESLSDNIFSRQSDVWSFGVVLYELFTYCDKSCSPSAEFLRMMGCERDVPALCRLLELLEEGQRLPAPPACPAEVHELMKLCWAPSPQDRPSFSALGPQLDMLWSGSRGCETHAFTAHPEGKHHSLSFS
The data set is described as follows: Inhibition of JAK3 activation in human U-937 cells assessed as decrease in P-STAT5 at 100 uM by Western blot analysis. The class given is cell-based. The following applies: time 0-24 hrs, TDE = time-dependent effect.

Data set [5] can be described thus: Clearance in 12 hr fasted SPF Sprague-Dawley rat at 5 mg/kg, iv upon 2 hrs fasting post-administration measured upto 24 hrs. The settings on record: in vivo. Type of data set: ADME, organism-based.
Data set [6] addresses T2, Tyrosine-protein kinase JAK3 (Homo sapiens, UniProt P52333).
T2 sequence (P52333 whole entry): T1 sequence (whole entry)
Description: Inhibition of GST tagged recombinant human JAK3 expressed in baculovirus infection system by FRET assay

In data set [7] the target is Receptor tyrosine-protein kinase erbB-2 (Homo sapiens) (UniProt P04626). The data set is described as follows: Inhibition of HER2 (unknown origin) at 0.5 uM assessed as competition rate relative to control.
Data set [8] concerns U-937. The data set is described as follows: Induction of cell cycle arrest in human U-937 cells assessed as accumulation at S phase at 11 nM measured after 24 hrs by propidium iodide staining based flow cytometric analysis (reference value: 15.35%). Type of data set: functional. Background: In flow cytometry, cells or beads pass a laser one at a time.
Data set [9] addresses Tyrosine-protein kinase Blk (Homo sapiens) (UniProt P51451). The data set is described as follows: Inhibition of BLK (unknown origin) at 0.5 uM assessed as competition rate relative to control.
Data set [10] relates to U-937. Description: Induction of cell cycle arrest in human U-937 cells assessed as downregulation of CDK6 at 0 to 300 nM measured after 24 hrs by western blot analysis. Type of data set: functional, cell-based. The following applies: dose 0-300 nM.
Data set [11] addresses Receptor-type tyrosine-protein kinase FLT3 (Homo sapiens) (UniProt P36888). Description: Inhibition of human FLT3 at 0.5 uM relative to control.
In data set [12] the target is NUAK family SNF1-like kinase 1 (Homo sapiens, UniProt O60285). Description: Inhibition of human ARK5.
Data set [13] has as its target T1, Tyrosine-protein kinase JAK3 (Homo sapiens). Description: Inhibition of human JAK3 at 0.5 uM relative to control.

NUAK family SNF1-like kinase 1, sequence (O60285 whole entry): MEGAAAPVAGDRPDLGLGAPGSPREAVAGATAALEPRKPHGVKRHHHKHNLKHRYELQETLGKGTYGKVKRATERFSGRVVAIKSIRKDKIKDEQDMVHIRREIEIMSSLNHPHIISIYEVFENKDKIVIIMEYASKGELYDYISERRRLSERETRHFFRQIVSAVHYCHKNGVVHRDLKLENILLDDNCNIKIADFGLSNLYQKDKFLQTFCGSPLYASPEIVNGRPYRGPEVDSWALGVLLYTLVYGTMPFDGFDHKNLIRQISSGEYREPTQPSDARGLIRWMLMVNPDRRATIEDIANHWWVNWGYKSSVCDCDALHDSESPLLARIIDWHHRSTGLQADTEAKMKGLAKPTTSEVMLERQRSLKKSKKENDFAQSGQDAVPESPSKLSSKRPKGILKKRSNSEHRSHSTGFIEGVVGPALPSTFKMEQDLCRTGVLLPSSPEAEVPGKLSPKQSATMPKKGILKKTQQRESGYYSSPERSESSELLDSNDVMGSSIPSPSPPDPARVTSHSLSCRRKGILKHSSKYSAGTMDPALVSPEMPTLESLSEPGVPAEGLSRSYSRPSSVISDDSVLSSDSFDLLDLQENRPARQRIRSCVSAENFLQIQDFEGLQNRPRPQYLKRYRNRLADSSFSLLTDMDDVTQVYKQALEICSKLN
Tyrosine-protein kinase Blk (Homo sapiens), sequence (P51451 2-505 limits assumed): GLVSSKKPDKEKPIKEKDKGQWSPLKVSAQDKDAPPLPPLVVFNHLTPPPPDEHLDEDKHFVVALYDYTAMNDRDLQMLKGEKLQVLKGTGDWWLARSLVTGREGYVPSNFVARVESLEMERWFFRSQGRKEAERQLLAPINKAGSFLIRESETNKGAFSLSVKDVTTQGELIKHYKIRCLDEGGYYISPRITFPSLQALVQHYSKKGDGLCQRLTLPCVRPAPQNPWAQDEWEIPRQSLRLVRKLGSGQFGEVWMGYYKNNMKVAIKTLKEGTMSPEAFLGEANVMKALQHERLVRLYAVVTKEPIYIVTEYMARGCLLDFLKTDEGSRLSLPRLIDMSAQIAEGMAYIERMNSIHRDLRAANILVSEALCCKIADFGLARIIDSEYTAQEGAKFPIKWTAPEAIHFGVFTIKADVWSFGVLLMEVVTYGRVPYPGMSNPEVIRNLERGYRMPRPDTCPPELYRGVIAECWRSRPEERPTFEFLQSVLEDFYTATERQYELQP
Receptor tyrosine-protein kinase erbB-4 (Homo sapiens), sequence (Q15303 whole entry): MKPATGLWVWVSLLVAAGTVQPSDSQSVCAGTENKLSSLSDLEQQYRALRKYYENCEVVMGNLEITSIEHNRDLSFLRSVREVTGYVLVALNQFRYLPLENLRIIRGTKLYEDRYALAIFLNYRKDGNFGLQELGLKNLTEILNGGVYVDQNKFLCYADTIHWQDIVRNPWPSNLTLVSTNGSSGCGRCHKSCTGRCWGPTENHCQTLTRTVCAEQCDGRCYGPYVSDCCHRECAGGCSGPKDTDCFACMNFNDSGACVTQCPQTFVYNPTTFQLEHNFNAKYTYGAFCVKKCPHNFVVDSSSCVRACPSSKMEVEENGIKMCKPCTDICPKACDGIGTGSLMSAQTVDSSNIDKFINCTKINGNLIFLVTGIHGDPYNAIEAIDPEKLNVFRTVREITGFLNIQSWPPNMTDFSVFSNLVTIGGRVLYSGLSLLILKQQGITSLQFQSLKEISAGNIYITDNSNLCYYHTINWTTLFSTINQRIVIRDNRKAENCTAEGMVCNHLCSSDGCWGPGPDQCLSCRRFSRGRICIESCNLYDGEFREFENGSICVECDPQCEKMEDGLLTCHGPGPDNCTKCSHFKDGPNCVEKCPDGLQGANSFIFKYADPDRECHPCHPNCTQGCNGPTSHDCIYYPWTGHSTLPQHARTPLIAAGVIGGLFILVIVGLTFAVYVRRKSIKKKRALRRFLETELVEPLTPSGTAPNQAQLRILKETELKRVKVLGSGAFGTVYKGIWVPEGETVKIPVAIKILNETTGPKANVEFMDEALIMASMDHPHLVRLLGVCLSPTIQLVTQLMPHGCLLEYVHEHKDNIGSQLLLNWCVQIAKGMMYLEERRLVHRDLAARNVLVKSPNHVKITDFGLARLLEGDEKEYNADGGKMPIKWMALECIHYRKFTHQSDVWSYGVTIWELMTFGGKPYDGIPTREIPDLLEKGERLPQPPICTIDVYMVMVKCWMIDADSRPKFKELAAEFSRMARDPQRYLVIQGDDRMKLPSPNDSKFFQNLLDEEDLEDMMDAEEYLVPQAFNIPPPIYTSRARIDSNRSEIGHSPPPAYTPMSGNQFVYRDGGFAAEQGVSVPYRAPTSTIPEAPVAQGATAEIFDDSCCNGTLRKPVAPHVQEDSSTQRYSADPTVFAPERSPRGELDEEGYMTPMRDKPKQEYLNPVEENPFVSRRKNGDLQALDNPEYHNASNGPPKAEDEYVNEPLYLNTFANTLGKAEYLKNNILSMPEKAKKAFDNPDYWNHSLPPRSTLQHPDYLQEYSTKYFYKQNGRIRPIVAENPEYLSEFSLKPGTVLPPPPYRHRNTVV
Receptor tyrosine-protein kinase erbB-2 (Homo sapiens), sequence (P04626 whole entry): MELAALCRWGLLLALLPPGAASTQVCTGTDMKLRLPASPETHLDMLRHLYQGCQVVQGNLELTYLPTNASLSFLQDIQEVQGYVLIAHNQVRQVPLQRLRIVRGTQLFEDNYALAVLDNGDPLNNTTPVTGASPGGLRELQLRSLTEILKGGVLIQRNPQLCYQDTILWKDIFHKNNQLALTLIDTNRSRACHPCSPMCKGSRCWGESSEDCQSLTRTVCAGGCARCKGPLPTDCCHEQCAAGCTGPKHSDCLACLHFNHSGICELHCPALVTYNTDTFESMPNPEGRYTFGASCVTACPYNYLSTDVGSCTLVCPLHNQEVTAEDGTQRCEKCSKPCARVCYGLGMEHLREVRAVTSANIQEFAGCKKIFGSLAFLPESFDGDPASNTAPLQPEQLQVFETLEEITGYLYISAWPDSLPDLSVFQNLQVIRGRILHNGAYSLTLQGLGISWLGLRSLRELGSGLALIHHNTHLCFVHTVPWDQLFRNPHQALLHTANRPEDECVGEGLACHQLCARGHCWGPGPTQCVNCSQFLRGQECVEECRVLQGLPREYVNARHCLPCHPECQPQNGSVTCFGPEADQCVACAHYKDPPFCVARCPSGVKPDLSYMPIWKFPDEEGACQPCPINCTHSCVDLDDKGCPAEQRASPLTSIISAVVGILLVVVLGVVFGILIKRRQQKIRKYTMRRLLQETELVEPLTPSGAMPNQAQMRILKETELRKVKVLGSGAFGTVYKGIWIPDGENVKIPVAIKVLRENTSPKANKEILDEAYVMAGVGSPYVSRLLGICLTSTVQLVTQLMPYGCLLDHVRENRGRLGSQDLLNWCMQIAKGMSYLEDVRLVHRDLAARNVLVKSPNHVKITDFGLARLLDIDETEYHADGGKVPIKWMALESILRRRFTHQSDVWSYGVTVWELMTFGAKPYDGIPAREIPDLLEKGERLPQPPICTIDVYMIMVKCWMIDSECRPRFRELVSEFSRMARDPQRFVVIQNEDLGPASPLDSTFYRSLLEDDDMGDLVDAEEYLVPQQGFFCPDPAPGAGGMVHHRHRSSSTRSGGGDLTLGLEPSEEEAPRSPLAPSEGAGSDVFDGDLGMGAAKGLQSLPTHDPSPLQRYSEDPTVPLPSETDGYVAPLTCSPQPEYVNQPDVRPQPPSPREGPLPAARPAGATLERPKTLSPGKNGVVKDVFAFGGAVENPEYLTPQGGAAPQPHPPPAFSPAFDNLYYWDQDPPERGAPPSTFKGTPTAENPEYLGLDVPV
Receptor-type tyrosine-protein kinase FLT3 (Homo sapiens), sequence (P36888 whole entry): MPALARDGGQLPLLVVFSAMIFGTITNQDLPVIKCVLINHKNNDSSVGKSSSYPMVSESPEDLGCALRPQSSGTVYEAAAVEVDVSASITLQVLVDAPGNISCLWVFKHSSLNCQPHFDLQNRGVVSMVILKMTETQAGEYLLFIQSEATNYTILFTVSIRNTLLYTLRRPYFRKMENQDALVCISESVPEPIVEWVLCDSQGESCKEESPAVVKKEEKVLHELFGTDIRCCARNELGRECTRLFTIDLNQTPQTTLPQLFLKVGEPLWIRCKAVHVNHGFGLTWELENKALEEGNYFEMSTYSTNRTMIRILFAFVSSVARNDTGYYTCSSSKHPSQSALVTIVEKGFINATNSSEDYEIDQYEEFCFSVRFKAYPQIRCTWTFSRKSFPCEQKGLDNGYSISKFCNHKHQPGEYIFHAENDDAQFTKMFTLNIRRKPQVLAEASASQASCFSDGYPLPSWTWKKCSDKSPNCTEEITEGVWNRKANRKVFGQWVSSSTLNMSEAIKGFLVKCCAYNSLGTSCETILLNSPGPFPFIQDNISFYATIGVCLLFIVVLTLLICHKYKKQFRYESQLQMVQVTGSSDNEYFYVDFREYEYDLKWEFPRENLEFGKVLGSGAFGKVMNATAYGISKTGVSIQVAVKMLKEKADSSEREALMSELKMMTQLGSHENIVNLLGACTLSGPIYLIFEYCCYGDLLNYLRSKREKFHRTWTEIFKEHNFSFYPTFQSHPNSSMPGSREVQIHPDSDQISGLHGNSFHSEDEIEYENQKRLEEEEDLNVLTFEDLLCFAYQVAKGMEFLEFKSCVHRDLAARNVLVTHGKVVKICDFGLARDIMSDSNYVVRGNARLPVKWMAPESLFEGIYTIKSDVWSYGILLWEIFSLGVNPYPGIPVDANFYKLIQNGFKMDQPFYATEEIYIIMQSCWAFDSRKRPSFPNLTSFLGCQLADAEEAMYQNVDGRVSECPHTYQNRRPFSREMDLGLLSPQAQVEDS

As usually defined, the inhibition is the percentage by which the read-out fell short of the control. In general, IC50 refers to the point on the concentration scale where inhibition reaches its midpoint. Consider `C=CC(=O)Nc1cc(Nc2ncc(Cl)c(O[C@@H]3CO[C@H]4[C@@H]3OC[C@H]4OC)n2)ccc1N(C)CCN(C)C`, for which the Activity in [1] was 17.86%; in data set [8], 15.18%. For the same compound, the inhibition in [2] was 40%; in [3], “Tde”; in data set [4] it was “Tde”; in [7], 40%; in data set [9] it was 40%; in data set [11], 23%. Also, the inhibition in data set [13] came to 9%. Also, the CL in [5] was 155.22%. The IC50 in data set [6] was found to be 1.2 nM; in [12], 25 nM. In data set [10], the outcome was Active.
